From PubChem BioAssay AID256 (DTP/NCI, 2004)
Values joined by “and” are separate entries in the source; they are usually repeats but may differ in a detail not shown here. Equal entries are not always repeated. Inconclusive results and toxic doses are left out. The calls were made as follows: active = survival T/C of 150% or more; inactive = T/C below 125% in these data.

Tested on: CD2F1 mice, L1210 leukemia ip, survival T/C
Experiment: NCI In Vivo Anticancer Drug Screen. Data for tumor model L1210 Leukemia (intraperitoneal) in CD2F1 (CDF1) mice
Details: higher = longer survival
Method in brief: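 In this screen, transplantable tumors were grown in mice given either the compound or its vehicle. Results were expressed as the treated measurement relative to the control measurement.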

[1] = endpoint: mean survival time, dose: 100.0 mg/kg/injection, schedule: Q01DX009 (ip), vehicle: saline with Tween-80
[2] = endpoint: mean survival time, dose: 100.0 mg/kg/injection, schedule: Q04DX003 (ip), vehicle: saline with Tween-80
[3] = endpoint: mean survival time, dose: 200.0 mg/kg/injection, schedule: Q01DX009 (ip), vehicle: saline with Tween-80
[4] = endpoint: mean survival time, dose: 200.0 mg/kg/injection, schedule: Q04DX003 (ip), vehicle: saline with Tween-80
[5] = endpoint: mean survival time, dose: 400.0 mg/kg/injection, schedule: Q04DX003 (ip), vehicle: saline with Tween-80
[6] = endpoint: mean survival time, dose: 25.0 mg/kg/injection, schedule: Q04DX003 (ip), vehicle: saline with Tween-80
[7] = endpoint: mean survival time, dose: 50.0 mg/kg/injection, schedule: Q04DX003 (ip), vehicle: saline with Tween-80
[8] = endpoint: mean survival time, dose: 100.0 mg/kg/injection, schedule: Q01DX001 (ip), vehicle: saline
[9] = endpoint: mean survival time, dose: 200.0 mg/kg/injection, schedule: Q01DX001 (ip), vehicle: saline
[10] = endpoint: mean survival time, dose: 400.0 mg/kg/injection, schedule: Q01DX001 (ip), vehicle: saline
[11] = endpoint: mean survival time, dose: 25.0 mg/kg/injection, schedule: Q04DX002 (ip), vehicle: saline with Tween-80
[12] = endpoint: mean survival time, dose: 50.0 mg/kg/injection, schedule: Q01DX009 (ip), vehicle: saline with Tween-80
[13] = endpoint: mean survival time, dose: 400.0 mg/kg/injection, schedule: Q01DX009 (ip), vehicle: saline with Tween-80

Measured: T/C

O=[N+]([O-])/C=C/c1cc2ccccc2[nH]1
inactive: endpoint: mean survival time, dose: 100.0 mg/kg/injection, schedule: Q04DX003 (ip), vehicle: acetone 94 % of control | endpoint: mean survival time, dose: 200.0 mg/kg/injection, schedule: Q04DX003 (ip), vehicle: acetone 94 % of control | endpoint: mean survival time, dose: 400.0 mg/kg/injection, schedule: Q04DX003 (ip), vehicle: acetone 105 % of control

COc1ccccc1/C(C)=N\NC(=O)c1ccccc1
inactive: [1] 94 % of control | [2] 94 % of control | [3] 96 % of control | [4] 98 % of control | [5] 104 % of control

C=CCOCC(O)CN(CCCC)CCCC (centres undefined)
inactive: [6] 104 % of control | [7] 106 % of control | [2] 90 % of control and 110 % of control

O=C1OCC2(C(=O)O)C(=O)OCC12 (centres undefined)
inactive: endpoint: mean survival time, dose: 50.0 mg/kg/injection, schedule: Q01DX001 (ip), vehicle: saline 97 % of control | [8] 106 % of control | [9] 106 % of control | [10] 101 % of control

COc1ccc(NC(=O)Oc2ccccc2F)c(Cl)c1
inactive: endpoint: mean survival time, dose: 50.0 mg/kg/injection, schedule: Q01DX009 (ip), vehicle: Klucel (hydroxypropylcellulose) (HPC) 96 % of control | endpoint: mean survival time, dose: 100.0 mg/kg/injection, schedule: Q01DX009 (ip), vehicle: Klucel (hydroxypropylcellulose) (HPC) 107 % of control | endpoint: mean survival time, dose: 200.0 mg/kg/injection, schedule: Q01DX009 (ip), vehicle: Klucel (hydroxypropylcellulose) (HPC) 104 % of control

CCC12CCCN=C1c1c([nH]c3ccccc13)CC2 (centres undefined)
inactive: endpoint: mean survival time, dose: 6.25 mg/kg/injection, schedule: Q04DX002 (ip), vehicle: saline with Tween-80 102 % of control | endpoint: mean survival time, dose: 12.5 mg/kg/injection, schedule: Q04DX002 (ip), vehicle: saline with Tween-80 104 % of control | [11] 98 % of control

O=C1OCC/C1=C/c1cccc(O)c1
inactive: endpoint: mean survival time, dose: 6.25 mg/kg/injection, schedule: Q04DX002 (ip), vehicle: Klucel (hydroxypropylcellulose) (HPC) 103 % of control | endpoint: mean survival time, dose: 25.0 mg/kg/injection, schedule: Q04DX002 (ip), vehicle: Klucel (hydroxypropylcellulose) (HPC) 107 % of control

CC(=O)OC1CCC2(C)C(=CCC3C4CC(C=O)=C(Cl)NC4(C)CCC32)C1 (centres undefined)
inactive: endpoint: mean survival time, dose: 25.0 mg/kg/injection, schedule: Q01DX001 (ip), vehicle: saline with Tween-80 98 % of control | endpoint: mean survival time, dose: 50.0 mg/kg/injection, schedule: Q01DX001 (ip), vehicle: saline with Tween-80 95 % of control | endpoint: mean survival time, dose: 100.0 mg/kg/injection, schedule: Q01DX001 (ip), vehicle: saline with Tween-80 92 % of control and 101 % of control | endpoint: mean survival time, dose: 400.0 mg/kg/injection, schedule: Q01DX001 (ip), vehicle: saline with Tween-80 87 % of control

O=C(O)C(Cl)(c1ccccc1)C(Cl)c1ccccc1 (centres undefined)
inactive: [12] 94 % of control | [1] 100 % of control | [2] 101 % of control | [3] 98 % of control | [4] 101 % of control

Nn1cnc2ccccc2c1=O
inactive: [8] 101 % of control | [9] 102 % of control | [10] 102 % of control

Nc1ccccc1Cl
inactive: endpoint: mean survival time, dose: 31.25 mg/kg/injection, schedule: Q01DX009 (ip), vehicle: saline with Tween-80 95 % of control | endpoint: mean survival time, dose: 31.25 mg/kg/injection, schedule: Q04DX003 (ip), vehicle: saline with Tween-80 97 % of control | endpoint: mean survival time, dose: 62.5 mg/kg/injection, schedule: Q01DX009 (ip), vehicle: saline with Tween-80 91 % of control | endpoint: mean survival time, dose: 62.5 mg/kg/injection, schedule: Q04DX003 (ip), vehicle: saline with Tween-80 101 % of control | endpoint: mean survival time, dose: 125.0 mg/kg/injection, schedule: Q01DX009 (ip), vehicle: saline with Tween-80 93 % of control | endpoint: mean survival time, dose: 125.0 mg/kg/injection, schedule: Q04DX003 (ip), vehicle: saline with Tween-80 101 % of control

CCCCCC/C=N/[N+](C)(C)C
inactive: endpoint: mean survival time, dose: 12.5 mg/kg/injection, schedule: Q01DX009 (ip), vehicle: saline 114 % of control | endpoint: mean survival time, dose: 25.0 mg/kg/injection, schedule: Q01DX009 (ip), vehicle: saline 101 % of control | endpoint: mean survival time, dose: 50.0 mg/kg/injection, schedule: Q01DX009 (ip), vehicle: saline 101 % of control and 107 % of control

COc1cc2c(c(OC)c1O)-c1ccc(OC)c(=O)cc1[C@@H](NC(C)=O)CC2
inactive: endpoint: mean survival time, dose: 1.25 mg/kg/injection, schedule: Q01DX005 (ip), vehicle: Klucel (hydroxypropylcellulose) (HPC) 103 % of control | endpoint: mean survival time, dose: 2.5 mg/kg/injection, schedule: Q01DX005 (ip), vehicle: Klucel (hydroxypropylcellulose) (HPC) 104 % of control | endpoint: mean survival time, dose: 3.12 mg/kg/injection, schedule: Q01DX009 (ip), vehicle: saline 118 % of control | endpoint: mean survival time, dose: 5.0 mg/kg/injection, schedule: Q01DX005 (ip), vehicle: Klucel (hydroxypropylcellulose) (HPC) 110 % of control | endpoint: mean survival time, dose: 20.0 mg/kg/injection, schedule: Q01DX005 (ip), vehicle: Klucel (hydroxypropylcellulose) (HPC) 121 % of control | endpoint: mean survival time, dose: 40.0 mg/kg/injection, schedule: Q01DX005 (ip), vehicle: Klucel (hydroxypropylcellulose) (HPC) 110 % of control

CCCCC(CC)CNC(=O)CI (centres undefined)
inactive: [8] 96 % of control

C[Si](C)(C)Oc1c(Cl)cc(Cl)cc1Cl
inactive: [1] 100 % of control | [3] 91 % of control | [13] 87 % of control

COC(=O)/C=C/N(CCF)CCF
inactive: endpoint: mean survival time, dose: 1.0 mg/kg/injection, schedule: Q01DX Z (ip), vehicle: saline 94 % of control | endpoint: mean survival time, dose: 3.0 mg/kg/injection, schedule: Q01DX Z (ip), vehicle: saline 108 % of control

O=C(O)c1cccnc1F
inactive: [2] 94 % of control | [4] 98 % of control | [5] 96 % of control

O=[N+]([O-])c1cc(Cl)cc2c1NP(=S)(c1ccccc1)N2 (centres undefined)
inactive: [11] 91 % of control | endpoint: mean survival time, dose: 50.0 mg/kg/injection, schedule: Q04DX002 (ip), vehicle: saline with Tween-80 102 % of control | endpoint: mean survival time, dose: 100.0 mg/kg/injection, schedule: Q04DX002 (ip), vehicle: saline with Tween-80 91 % of control | endpoint: mean survival time, dose: 200.0 mg/kg/injection, schedule: Q04DX002 (ip), vehicle: saline with Tween-80 98 % of control

Cc1cc2n[se]nc2cc1C
inactive: endpoint: median survival time, dose: 3.12 mg/kg/injection, schedule: Q01DX009 (ip), vehicle: Klucel (hydroxypropylcellulose) (HPC) 94 % of control | endpoint: median survival time, dose: 6.25 mg/kg/injection, schedule: Q01DX009 (ip), vehicle: Klucel (hydroxypropylcellulose) (HPC) 95 % of control | endpoint: median survival time, dose: 12.5 mg/kg/injection, schedule: Q01DX009 (ip), vehicle: Klucel (hydroxypropylcellulose) (HPC) 98 % of control | endpoint: median survival time, dose: 25.0 mg/kg/injection, schedule: Q01DX009 (ip), vehicle: Klucel (hydroxypropylcellulose) (HPC) 101 % of control

O=[P+](O)O[P+](=O)O.O=[P+](O)O[P+](=O)O.O=[P+](O)O[P+](=O)O.O=[P+](O)O[P+](=O)O.[Cl][Pt].[Cl][Pt]
inactive: endpoint: median survival time, dose: 3.12 mg/kg/injection, schedule: Q04DX003 (ip), vehicle: saline 102 % of control | endpoint: median survival time, dose: 6.25 mg/kg/injection, schedule: Q04DX003 (ip), vehicle: saline 96 % of control | endpoint: median survival time, dose: 12.5 mg/kg/injection, schedule: Q04DX003 (ip), vehicle: saline 95 % of control | endpoint: median survival time, dose: 25.0 mg/kg/injection, schedule: Q04DX003 (ip), vehicle: saline 97 % of control | endpoint: median survival time, dose: 50.0 mg/kg/injection, schedule: Q04DX003 (ip), vehicle: saline 104 % of control

Cc1ccc(C(=O)NN)cc1
inactive: [6] 96 % of control | [7] 96 % of control | [2] 95 % of control and 107 % of control

C/[N+]([O-])=C/C1OC(n2ccc(=O)[nH]c2=O)C2OC(C)(C)OC12 (centres undefined)
inactive: endpoint: median survival time, dose: 21.38 mg/kg/injection, schedule: Q01DX005 (ip), vehicle: saline 106 % of control | endpoint: median survival time, dose: 42.75 mg/kg/injection, schedule: Q01DX005 (ip), vehicle: saline 100 % of control | endpoint: median survival time, dose: 85.5 mg/kg/injection, schedule: Q01DX005 (ip), vehicle: saline 100 % of control | endpoint: median survival time, dose: 171.0 mg/kg/injection, schedule: Q01DX005 (ip), vehicle: saline 107 % of control

CC(=O)Oc1cc2c(cc1C(C)C)CCC1C(C)(C#N)CCCC21C (centres undefined)
inactive: [1] 90 % of control | [2] 89 % of control | [3] 95 % of control | [4] 87 % of control | [13] 92 % of control | [5] 98 % of control

O=C1OC(=O)C2C3CC(C4OC34)C12 (centres undefined)
inactive: [1] 103 % of control | [3] 97 % of control | [13] 87 % of control

Cl/C=C(\Cl)CCl
inactive: endpoint: mean survival time, dose: 25.0 mg/kg/injection, schedule: Q01DX009 (ip), vehicle: saline with Tween-80 91 % of control | [12] 96 % of control | [1] 94 % of control

Cc1ccc(N2CC(O)CSC2=Nc2ccccc2)cc1 (centres undefined)
inactive: endpoint: mean survival time, dose: 100.0 mg/kg/injection, schedule: Q01DX001 (ip), vehicle: Klucel (hydroxypropylcellulose) (HPC) 93 % of control | endpoint: mean survival time, dose: 200.0 mg/kg/injection, schedule: Q01DX001 (ip), vehicle: Klucel (hydroxypropylcellulose) (HPC) 91 % of control | endpoint: mean survival time, dose: 400.0 mg/kg/injection, schedule: Q01DX001 (ip), vehicle: Klucel (hydroxypropylcellulose) (HPC) 91 % of control
